In PMC12247020, “A Cyclized Helix‐Loop‐Helix Peptide as a Molecular Scaffold for Cell‐Membrane Permeable Inhibitors for the Interaction Between Estrogen Receptor α and Coactivator SRC1” (Chembiochem, 2025):
Bridge positions count the residues as written; N and C are the ends. Peptide text beside a SMILES is read from it.

Columns and labels:
[1] = target: T1, interaction between ERα/LBD and FL‐SRC1Box2 (Homo sapiens, UniProt P03372); experiment: FP competition: inhibition of the ERα/LBD–FL‐SRC1Box2 interaction; assay type: binding; details: ERα/LBD 20 μM, four parameter logistic equation (Fig S5C)
T1 construct: Recombinant ERα/LBD (ERα^302–552) was prepared as previously reported; made in house; host or cells: Escherichia coli BL21-CodonPlus-RP (ERα LBD); the probe is a synthetic peptide
T1 sequence (P03372 302-552): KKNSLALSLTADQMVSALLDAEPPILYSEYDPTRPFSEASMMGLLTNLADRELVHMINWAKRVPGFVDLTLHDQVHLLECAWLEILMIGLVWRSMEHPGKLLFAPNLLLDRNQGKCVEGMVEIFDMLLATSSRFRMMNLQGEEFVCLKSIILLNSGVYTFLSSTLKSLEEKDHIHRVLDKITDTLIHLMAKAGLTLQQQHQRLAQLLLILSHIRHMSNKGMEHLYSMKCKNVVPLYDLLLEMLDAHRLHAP
Procedure: The binding activity of cHLH‐ERα was examined by fluorescence polarization (FP) analysis.^[ [26], [29] ^] The cHLH peptides were labeled with tetramethylrhodamine (TMR) to provide the fluorescent cHLH peptide TMR‐cHLH‐ERα, and fluorescent TMR‐YT1‐RS as a negative control (Figure 1, Figure S2, Supporting Information).
4. Fluorescence Polarization
The binding activity of the ERα-LBD was examined with 20 nM FL-SRC1Box2 (CH3CO- […]
C(FL)[…]-NH2; FL: Fluorescein) with 10 µM 17β-estradiol in 20 mM
Tris-HCl (pH 8.0), 25 mM NaCl, 10%(v/v) Glycerol, 1 mM TCEP as described. The concentration of FL-SRC1Box2 labeled with Fluorescein and TMR-cHLH-ERα and YT1-RS were determined from the absorption of Fluorescein or Tetramethylrhodamine. The respective peptide was incubated with ERα-LBD for 30 min in 20 mM Tris-HCl (pH 8.0), 25 mM NaCl with 1 mM 17β-estradiol, and the mixture was transferred into a 384-well microtiter well (Non-binding, Black, greiner bio -one) and the fluorescence polarization was measured on a spectrofluorometer (SpectraMax iD5, Molecular Devices) at 20 °C. The KD values were analyzed via a quadratic binding equation (Fig S5A, S5B) with the data fit to calculate by using KaleidaGraph 4.0 as described elsewhere. The IC50 value was estimated as 7.1 µM derived from four parameter logistic equation (Fig. S 5C). […]

[2] = tested on: MCF‐7 breast cancer cells; experiment: WST‐1 cell viability assay, 17β‐estradiol‐dependent proliferation; assay type: cell-based; details: WST‐1 assay, 3.125 to 25 μM peptide, 10 nM 17β‐estradiol, 72 h
Procedure: Next, we examined the inhibitory activities of the peptides for the 17β‐estradiol‐dependent proliferation of MCF‐7 breast cancer cells using the WST‐1 assay (Figure 2D). The MCF‐7 cells were incubated with the serially diluted peptides cHLH‐ERα or YT1‐RS in the presence of 10 nM 17β‐estradiol.
For cell viability assay,^[ [35] ^] ER‐positive MCF‐7 cancer cells were grown in the recommended media Dulbecco's modified Eagle medium (DMEM) supplemented with 10% heat‐inactivated fetal bovine serum and with 1% penicillin–streptomycin (Gibco) in a humidified environment with 5% CO2. These cells were incubated in 96‐well plates (Corning) at 5,000 cells/well and cultured for 24 h. The cells were treated with 10 nM 17β‐estradiol for 1 h, then a various concentrations of peptides were added. After culturing the cells for 72 h, the proliferation f cells was measured by using WST‐1 reagent (Roche) according to the standard protocols. The absorbance was measured by using a microplate reader (Model 680, Bio‐Rad). Reliability of the cell viability assay was confirmed by using Tamoxifen (nacalai tesque) as a control.

[3] = tested on: human ERα and the transcriptional coactivator SRC1; experiment: Yeast reporter assay (lacZ, β‐galactosidase) for ERα–SRC1 antagonism; assay type: cell-based; details: 100 μM peptide, 17β‐estradiol (10 and 100 nM), 18 h, 30 °C
Description: The expression plasmids for human ERα and the transcriptional coactivator SRC1 were transformed, along with the lacZ reporter plasmid carrying the estrogen response element (RE).^[ [13] ^] The production of ERα and SRC1 was regulated by the galactose‐inducible GAL1‐10 promoter. In response to 17β‐estradiol, ERα, and SRC1 formed a complex on the RE, inducing the ligand‐dependent expression of β‐galactosidase (Figure S8, Supporting Information). The genes encoding the major cell wall mannoproteins Cwp1p and Cwp2p were deleted,^[ [30] ^] probably allowing the cHLH peptides to access the cell membrane by passing through the less dense cell wall of the yeast strain.^[ [32] ^] The effect of the cHLH peptide on the ERα–SRC1 interaction was examined in the presence of 17β‐estradiol (10 and 100 nM).
As previously reported,^[ [30] ^] the yeast strain ERα cwp1Δcwp2Δ was cultured on agar plates with synthetic dextrose (glucose) complete (SDC) dropout medium lacking tryptophan, leucine, and uracil (SDC‐Trp, Leu, Ura; 2% glucose, 2% agar) for single colony isolation. […] Absorbance at wavelengths of 405 and 595 nm was measured using Model 680 Microplate Reader (BioRad Lab., Inc.) to estimate the β‐galactosidase activity as the amount of o‐nitrophenol (ONP) produced and yeast cell density, respectively. The relative β‐galactosidase activity in each well was calculated as A405/A595. […]

IC50 [1]: 7.1 µM
SMILES: CC(C)C[C@@H]1NC(=O)[C@H](C)NC(=O)[C@H](C)NC(=O)[C@H](CC(C)C)NC(=O)[C@H](CCCCN)NC(=O)CNC(=O)CNC(=O)CNC(=O)CNC(=O)CNC(=O)CNC(=O)CNC(=O)[C@H](CCC(=O)O)NC(=O)[C@H](CC(C)C)NC(=O)[C@H](CCCNC(=N)N)NC(=O)[C@H](CCCNC(=N)N)NC(=O)[C@H](CC(C)C)NC(=O)[C@H](CCC(=O)O)NC(=O)[C@H](CCCNC(=N)N)NC(=O)[C@H](CCC(=O)O)NC(=O)[C@H](CC(C)C)NC(=O)[C@H](CCCNC(=N)N)NC(=O)[C@H](CCCNC(=N)N)NC(=O)[C@H](CC(C)C)NC(=O)[C@H](CCC(=O)O)NC(=O)[C@H](CCCNC(=N)N)NC(=O)[C@H](C)NC(=O)CNC(=O)CSC[C@@H](C(N)=O)NC(=O)[C@H](Cc2ccc(O)cc2)NC(=O)[C@H](C)NC(=O)[C@H](CCCCN)NC(=O)[C@H](CC(C)C)NC(=O)[C@H](CC(C)C)NC(=O)[C@H](CC(C)C)NC(=O)[C@H](CC(C)C)NC(=O)[C@H](CCCCN)NC(=O)[C@H](CC(C)C)NC(=O)[C@H](CCCCN)NC1=O [cHLH‐ERα] ({CH2CO}-GARELRRLERELRRLEGGGGGGGKLAALKLKLLLLKAYC-NH2; thioether N-39)
inhibitory activity for the 17β‐estradiol‐dependent proliferation of MCF‐7 cells [2]: inhibited the proliferation of MCF‐7 cells dose‐dependently | inhibition of transcriptional activity (β‐galactosidase) in yeast reporter assay [3]: significantly inhibited transcriptional activity
